From patent publication US10920198B2, “Delta133p53beta and delta133p53gamma isoforms are biomarkers of cancer stem cells” (Centre National de la Recherche Scientifique (CNRS), priority 2015, dated 2021)

Tests used:
Type in all cases: cell-based, human
MCF-7 cells [1] = assay: Mammosphere formation in MCF-7 cells; settings: MCF-7 cells after transduction, compared to control cells
Description: For mammosphere formation, 1000 cells/ml (500 cells/well) were plated in Ultra Low Cluster Plate, 24-well, Flat Bottom (Corning Inc) with MammoCult™ Medium enriched with MammoCult™ Proliferation Supplements, hydrocortisone and heparin (Stem Cell Technologies) and cultured for 15 days. For all mammosphere assays, at least three independent experiments for each condition were carried out and repeated 8-12 times. For self-renewal experiments, transfected cells were subjected to a first cycle of mammosphere formation. Upon 15 days of culture the created mammospheres were dissociated and cells were re-plated in identical conditions as for the first plating.

[2] = system: c-Myc, Sox 2, Oct 3/4 and Nanog; assay: Expression of pluripotency/reprogramming factors in MCF-7 cells (RT-qPCR, western blot); settings: MCF-7 cells after transduction; mRNA and/or protein
Excerpt: (§1) The following antibodies were used for immunoblotting: anti-c-Myc (9E10 mouse hybridoma clone), -Nanog (sc-81961, Santa Cruz Biotechnology), -Oct 3/4 (sc-8630, Santa Cruz Biotechnology), -Sox 2 (sc-17320, Santa Cruz Biotechnology), -p53 (DO-1; sc-126 Santa Cruz Biotechnology), -p53 Sapu (Vojtesek et al. 1995), -α-tubulin (clone DM1A, Sigma-Aldrich), -β-actin (clone AC-74 Sigma-Aldrich), -p21 (sc-397 Santa Cruz Biotechnology) and -Flag (clone M2; Sigma-Aldrich). Secondary HRP-conjugated antibodies were from GE Healthcare. For luminescence quantification, cells were serially diluted and incubated with 0.5 mM D-luciferin (Sigma). Luminescence was quantified with a Polarstar Omega instrument (BMG LABTECH).
Total RNA was extracted (Qiagen) and reverse transcription (RT) was performed with 1-5 μg of total RNA using the SuperScript® III Reverse Transcriptase (Life Technologies) at 50° C. Levels of different mRNAs were quantified by real-time qPCR on a LightCycler480 apparatus (Roche). Briefly, 20 ng cDNA was amplified using 0.168 μM of each primer, 0.2 μM of probe (Table 4) and 1× LightCycler® 480 Probes Master Mix (Roche) for the p53 isoforms, or commercially available primers (Qiagen) and 1× LightCycler® 480 Sybr Green Master Mix (Roche) for the other genes. Data were normalized to the internal standard TBP. The different primers used and their corresponding sequences have been previously described (Bourdon et al., 2005). For each single-well amplification reaction, a threshold cycle (Ct) was calculated by using the LightCycler480 program (Roche) in the exponential phase of amplification. Relative changes in gene expression were determined using the 2ΔΔCt method and reported relative to a control. All quantification studies were performed with at least three independent experiments, repeated twice, for each condition. Data are presented as the arithmetic mean±SEM.

[3] = system: Δ133p53 (α, β and γ) isoforms; assay: Expression of Δ133p53 isoforms in MCF-7 cells (RT-qPCR, western blot); settings: MCF-7 cells after transduction; RT-qPCR
Excerpt: as §1
Total RNA was extracted (Qiagen) and reverse transcription (RT) was performed with 1-5 μg of total RNA using the SuperScript® III Reverse Transcriptase (Life Technologies) at 50° C. Levels of different mRNAs were quantified by real-time qPCR on a LightCycler480 apparatus (Roche). […] For each single-well amplification reaction, a threshold cycle (Ct) was calculated by using the LightCycler480 program (Roche) in the exponential phase of amplification. Relative changes in gene expression were determined using the 2ΔΔCt method and reported relative to a control. All quantification studies were performed with at least three independent experiments, repeated twice, for each condition. […]

MCF-7 cells [4] = assay: Flow cytometry of CD44/CD24 double labeling in MCF-7 cells; settings: MCF-7 cells after transduction
Description: Single cell suspensions were labeled on ice with CD24-FITC, CD44-PE and their respective isotype controls (BioLegend) at the dilutions indicated by the manufacturer in Phosphate Buffered Saline (PBS) with 10% FBS for 30 min. Cells were then washed once with PBS and re-suspended in PBS/10% FBS. All samples were analyzed on a CyAn analyzer ([…] Coulter, Inc) using Sytox Blue (Life Technologies) to monitor cell viability.

Sh1: shRNA, 5′-GACTCCAGTGGTAATCTAC-3′ (SEQ ID NO: 13); knocks down all p53 isoforms (target site or template, no part of the molecule; short hairpin RNA, only the targeted sequence is given, further chemistry not given here)
mammosphere formation (MCF-7 cells [1]): significant reduction
c-Myc expression [2]: no effect
expression of Oct 3/4, Nanog and Sox 2 [2]: no effect

Sh2: shRNA, 5′-GTCCAGATGAAGCTCCCAGAA-3′ (SEQ ID NO: 18); targets the long TAp53 and Δ40p53 isoforms (target site or template, no part of the molecule; short hairpin RNA, only the targeted sequence is given, further chemistry not given here)
mammosphere formation (MCF-7 cells [1]): no effect
expression of the Δ133 isoforms [3]: increased
proportion of CD44+/CD24− cells (MCF-7 cells [4]): not affected
c-Myc expression [2]: but not of c-Myc
expression of Oct 3/4, Nanog and Sox 2 [2]: increased expression

Sh4: shRNA, 5′-CTTGTGCCCTGACTTTCAA-3′ (SEQ ID NO: 15); targets the 5′ UTR of the Δ133 isoforms (α, β and γ) (target site or template, no part of the molecule; short hairpin RNA, only the targeted sequence is given, further chemistry not given here)
mammosphere formation (MCF-7 cells [1]): significantly reduced
c-Myc expression [2]: not affected
expression of Oct 3/4, Nanog and Sox 2 [2]: significantly down-regulated

Sh5: shRNA, 5′-GGACCAGACCAGCTTTCA-3′ (SEQ ID NO: 16); targets the 3′ end of the β isoforms (target site or template, no part of the molecule; short hairpin RNA, only the targeted sequence is given, further chemistry not given here)
mammosphere formation (MCF-7 cells [1]): significantly reduced

Sh6: shRNA, 5′-GTGAGCGCTTCGAGATGTT-3′ (SEQ ID NO: 19); targets the 3′ end of the α isoforms (target site or template, no part of the molecule; short hairpin RNA, only the targeted sequence is given, further chemistry not given here)
mammosphere formation (MCF-7 cells [1]): did not affect

B1: Δ133p53γ: human p53 isoform (SEQ ID NO: 3), overexpressed from pMSCVhyg retroviral vector (protein, listed as Homo sapiens)
chain: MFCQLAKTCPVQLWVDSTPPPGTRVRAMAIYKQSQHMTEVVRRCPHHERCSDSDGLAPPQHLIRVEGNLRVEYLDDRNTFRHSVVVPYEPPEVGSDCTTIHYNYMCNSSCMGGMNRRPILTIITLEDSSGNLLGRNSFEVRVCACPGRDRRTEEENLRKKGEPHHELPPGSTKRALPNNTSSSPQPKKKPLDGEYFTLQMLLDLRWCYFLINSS
modifications: SITE (1)..(214) Homo sapiens tumor protein p53, isoform delta133p53gamma (Genbank NP_001119589.1)
mammosphere formation (MCF-7 cells [1]): milder effect
